# From patent US20230123334A1, “AMINO LIPID COMPOUND, PREPARATION METHOD THEREFOR, AND APPLICATION THEREOF” (SHENZHEN SHENXIN BIOTECHNOLOGY CO., LTD., priority 2020, published 2023)
# Tested on: HEK293 cells
# Experiment: Preliminary screening as mRNA vectors, EGFP mRNA transfection of HEK293 cells
# Assay type: cell-based
# Conditions: EGFP mRNA 50 ng per well, 96-well plates; percentage of GFP fluorescent cells relative to total number of cells (Hoechst)
# Protocol: Cell line: HEK293 cells (ATCC CRL-1573™)
# Medium: DMEM supplemented with 10% fetal bovine serum (Invitrogen)
# Screening: cell transfection on 96-well plates
# Detection (readout): percentage of the number of GFP fluorescent cells relative to the total number of cells (the total number of cells was determined using nucleus dye Hoechst). Lipofectamine2000 (Invitrogen) was used as the positive control.
# Method: the experimental method was basically the same with Example 4, and the mass of EGFP mRNA (TriLink) for transfection was 50 ng per well.
smiles,measurement,value
CCCCCCCCCCCCCCCCNc1nc(NCCN(C)C)nc(SCCCCCC)n1 [Compound D1S6N16],Absolute mRNA transfection efficiency in HEK293 cells,3.3%
CCCCCCCCCCCCCCCCCCNc1nc(NCCN(C)C)nc(SCCCCCC)n1 [Compound D1S6N18],Absolute mRNA transfection efficiency in HEK293 cells,32.7%
CCCCCCSc1nc(NCCN(C)C)nc(SCCCCCC)n1 [Compound D1S6S6],Absolute mRNA transfection efficiency in HEK293 cells,0.7%
CCCCCCCSc1nc(NCCN(C)C)nc(SCCCCCC)n1 [Compound D1S6S7],Absolute mRNA transfection efficiency in HEK293 cells,1.0%
CCCCCCCCSc1nc(NCCN(C)C)nc(SCCCCCC)n1 [Compound D1S6S8],Absolute mRNA transfection efficiency in HEK293 cells,0.7%
CCCCCCCCCSc1nc(NCCN(C)C)nc(SCCCCCC)n1 [Compound D1S6S9],Absolute mRNA transfection efficiency in HEK293 cells,2.3%
CCCCCCCCCCSc1nc(NCCN(C)C)nc(SCCCCCC)n1 [Compound D1S6S10],Absolute mRNA transfection efficiency in HEK293 cells,0.7%
CCCCCCCCCCCSc1nc(NCCN(C)C)nc(SCCCCCC)n1 [Compound D1S6S11],Absolute mRNA transfection efficiency in HEK293 cells,0.4%
CCCCCCCCCCCCSc1nc(NCCN(C)C)nc(SCCCCCC)n1 [Compound D1S6S12],Absolute mRNA transfection efficiency in HEK293 cells,0.6%
CCCCCCCCCCCCCCSc1nc(NCCN(C)C)nc(SCCCCCC)n1 [Compound D1S6S14],Absolute mRNA transfection efficiency in HEK293 cells,0.8%
CCCCCCCCCCCCCCCSc1nc(NCCN(C)C)nc(SCCCCCC)n1 [Compound D1S6S15],Absolute mRNA transfection efficiency in HEK293 cells,1.2%
CCCCCCCCCCCCCCCCSc1nc(NCCN(C)C)nc(SCCCCCC)n1 [Compound D1S6S16],Absolute mRNA transfection efficiency in HEK293 cells,0.9%
CCCCCCCCCCCCCCCCCCSc1nc(NCCN(C)C)nc(SCCCCCC)n1 [Compound D1S6S18],Absolute mRNA transfection efficiency in HEK293 cells,15.9%
CCCCCCCSc1nc(NCCCCCC)nc(NCCN(C)C)n1 [Compound D1S7N6],Absolute mRNA transfection efficiency in HEK293 cells,5.1%
CCCCCCCNc1nc(NCCN(C)C)nc(SCCCCCCC)n1 [Compound D1S7N7],Absolute mRNA transfection efficiency in HEK293 cells,4.4%
CCCCCCCCNc1nc(NCCN(C)C)nc(SCCCCCCC)n1 [Compound D1S7N8],Absolute mRNA transfection efficiency in HEK293 cells,2.0%
CCCCCCCCCNc1nc(NCCN(C)C)nc(SCCCCCCC)n1 [Compound D1S7N9],Absolute mRNA transfection efficiency in HEK293 cells,10.0%
CCCCCCCCCCCNc1nc(NCCN(C)C)nc(SCCCCCCC)n1 [Compound D1S7N11],Absolute mRNA transfection efficiency in HEK293 cells,5.8%
CCCCCCCCCCCCNc1nc(NCCN(C)C)nc(SCCCCCCC)n1 [Compound D1S7N12],Absolute mRNA transfection efficiency in HEK293 cells,5.4%
CCCCCCCCCCCCCNc1nc(NCCN(C)C)nc(SCCCCCCC)n1 [Compound D1S7N13],Absolute mRNA transfection efficiency in HEK293 cells,12.8%
CCCCCCCCCCCCCCCNc1nc(NCCN(C)C)nc(SCCCCCCC)n1 [Compound D1S7N15],Absolute mRNA transfection efficiency in HEK293 cells,21.3%
CCCCCCCCCCCCCCCCNc1nc(NCCN(C)C)nc(SCCCCCCC)n1 [Compound D1S7N16],Absolute mRNA transfection efficiency in HEK293 cells,29.5%
CCCCCCCCCCCCCCCCCCNc1nc(NCCN(C)C)nc(SCCCCCCC)n1 [Compound D1S7N18],Absolute mRNA transfection efficiency in HEK293 cells,35.7%
CCCCCCCSc1nc(NCCN(C)C)nc(SCCCCCCC)n1 [Compound D1S7S7],Absolute mRNA transfection efficiency in HEK293 cells,14.9%
CCCCCCCCSc1nc(NCCN(C)C)nc(SCCCCCCC)n1 [Compound D1S7S8],Absolute mRNA transfection efficiency in HEK293 cells,16.7%
CCCCCCCCCSc1nc(NCCN(C)C)nc(SCCCCCCC)n1 [Compound D1S7S9],Absolute mRNA transfection efficiency in HEK293 cells,8.1%
CCCCCCCCCCSc1nc(NCCN(C)C)nc(SCCCCCCC)n1 [Compound D1S7S10],Absolute mRNA transfection efficiency in HEK293 cells,5.6%
CCCCCCCCCCCSc1nc(NCCN(C)C)nc(SCCCCCCC)n1 [Compound D1S7S11],Absolute mRNA transfection efficiency in HEK293 cells,4.1%
CCCCCCCCCCCCSc1nc(NCCN(C)C)nc(SCCCCCCC)n1 [Compound D1S7S12],Absolute mRNA transfection efficiency in HEK293 cells,3.1%
CCCCCCCCCCCCCCSc1nc(NCCN(C)C)nc(SCCCCCCC)n1 [Compound D1S7S14],Absolute mRNA transfection efficiency in HEK293 cells,3.1%
CCCCCCCCCCCCCCCSc1nc(NCCN(C)C)nc(SCCCCCCC)n1 [Compound D1S7S15],Absolute mRNA transfection efficiency in HEK293 cells,3.9%
CCCCCCCCCCCCCCCCSc1nc(NCCN(C)C)nc(SCCCCCCC)n1 [Compound D1S7S16],Absolute mRNA transfection efficiency in HEK293 cells,6.9%
CCCCCCCCCCCCCCCCCCSc1nc(NCCN(C)C)nc(SCCCCCCC)n1 [Compound D1S7S18],Absolute mRNA transfection efficiency in HEK293 cells,4.1%
CCCCCCCCSc1nc(NCCCCCC)nc(NCCN(C)C)n1 [Compound D1S8N6],Absolute mRNA transfection efficiency in HEK293 cells,2.4%
CCCCCCCCSc1nc(NCCCCCCC)nc(NCCN(C)C)n1 [Compound D1S8N7],Absolute mRNA transfection efficiency in HEK293 cells,2.0%
CCCCCCCCNc1nc(NCCN(C)C)nc(SCCCCCCCC)n1 [Compound D1S8N8],Absolute mRNA transfection efficiency in HEK293 cells,5.8%
CCCCCCCCCNc1nc(NCCN(C)C)nc(SCCCCCCCC)n1 [Compound D1S8N9],Absolute mRNA transfection efficiency in HEK293 cells,21.4%
CCCCCCCCCCCNc1nc(NCCN(C)C)nc(SCCCCCCCC)n1 [Compound D1S8N11],Absolute mRNA transfection efficiency in HEK293 cells,9.0%
CCCCCCCCCCCCNc1nc(NCCN(C)C)nc(SCCCCCCCC)n1 [Compound D1S8N12],Absolute mRNA transfection efficiency in HEK293 cells,17.9%
CCCCCCCCCCCCCNc1nc(NCCN(C)C)nc(SCCCCCCCC)n1 [Compound D1S8N13],Absolute mRNA transfection efficiency in HEK293 cells,15.5%
CCCCCCCCCCCCCCCNc1nc(NCCN(C)C)nc(SCCCCCCCC)n1 [Compound D1S8N15],Absolute mRNA transfection efficiency in HEK293 cells,23.8%
CCCCCCCCCCCCCCCCNc1nc(NCCN(C)C)nc(SCCCCCCCC)n1 [Compound D1S8N16],Absolute mRNA transfection efficiency in HEK293 cells,22.5%
CCCCCCCCCCCCCCCCCCNc1nc(NCCN(C)C)nc(SCCCCCCCC)n1 [Compound D1S8N18],Absolute mRNA transfection efficiency in HEK293 cells,19.3%
CCCCCCCCSc1nc(NCCN(C)C)nc(SCCCCCCCC)n1 [Compound D1S8S8],Absolute mRNA transfection efficiency in HEK293 cells,11.7%
CCCCCCCCCSc1nc(NCCN(C)C)nc(SCCCCCCCC)n1 [Compound D1S8S9],Absolute mRNA transfection efficiency in HEK293 cells,7.4%
CCCCCCCCCCSc1nc(NCCN(C)C)nc(SCCCCCCCC)n1 [Compound D1S8S10],Absolute mRNA transfection efficiency in HEK293 cells,8.6%
CCCCCCCCCCCSc1nc(NCCN(C)C)nc(SCCCCCCCC)n1 [Compound D1S8S11],Absolute mRNA transfection efficiency in HEK293 cells,3.0%
CCCCCCCCCCCCSc1nc(NCCN(C)C)nc(SCCCCCCCC)n1 [Compound D1S8S12],Absolute mRNA transfection efficiency in HEK293 cells,1.4%
CCCCCCCCCSc1nc(NCCCCCC)nc(NCCN(C)C)n1 [Compound D1S9N6],Absolute mRNA transfection efficiency in HEK293 cells,1.1%
CCCCCCCCCSc1nc(NCCCCCCC)nc(NCCN(C)C)n1 [Compound D1S9N7],Absolute mRNA transfection efficiency in HEK293 cells,0.3%
CCCCCCCCCSc1nc(NCCCCCCCC)nc(NCCN(C)C)n1 [Compound D1S9N8],Absolute mRNA transfection efficiency in HEK293 cells,2.9%
CCCCCCCCCNc1nc(NCCN(C)C)nc(SCCCCCCCCC)n1 [Compound D1S9N9],Absolute mRNA transfection efficiency in HEK293 cells,8.0%
CCCCCCCCCCCNc1nc(NCCN(C)C)nc(SCCCCCCCCC)n1 [Compound D1S9N11],Absolute mRNA transfection efficiency in HEK293 cells,53.0%
CCCCCCCCCCCCNc1nc(NCCN(C)C)nc(SCCCCCCCCC)n1 [Compound D1S9N12],Absolute mRNA transfection efficiency in HEK293 cells,30.2%
CCCCCCCCCCCCCNc1nc(NCCN(C)C)nc(SCCCCCCCCC)n1 [Compound D1S9N13],Absolute mRNA transfection efficiency in HEK293 cells,25.8%
CCCCCCCCCCCCCCCNc1nc(NCCN(C)C)nc(SCCCCCCCCC)n1 [Compound D1S9N15],Absolute mRNA transfection efficiency in HEK293 cells,27.4%
CCCCCCCCCCCCCCCCNc1nc(NCCN(C)C)nc(SCCCCCCCCC)n1 [Compound D1S9N16],Absolute mRNA transfection efficiency in HEK293 cells,25.6%
CCCCCCCCCCCCCCCCCCNc1nc(NCCN(C)C)nc(SCCCCCCCCC)n1 [Compound D1S9N18],Absolute mRNA transfection efficiency in HEK293 cells,47.6%
CCCCCCCCCCSc1nc(NCCCCCC)nc(NCCN(C)C)n1 [Compound D1S10N6],Absolute mRNA transfection efficiency in HEK293 cells,0.4%
CCCCCCCCCCSc1nc(NCCCCCCC)nc(NCCN(C)C)n1 [Compound D1S10N7],Absolute mRNA transfection efficiency in HEK293 cells,0.2%
CCCCCCCCCCSc1nc(NCCCCCCCC)nc(NCCN(C)C)n1 [Compound D1S10N8],Absolute mRNA transfection efficiency in HEK293 cells,0.5%
CCCCCCCCCCSc1nc(NCCCCCCCCC)nc(NCCN(C)C)n1 [Compound D1S10N9],Absolute mRNA transfection efficiency in HEK293 cells,0.5%
CCCCCCCCCCCNc1nc(NCCN(C)C)nc(SCCCCCCCCCC)n1 [Compound D1S10N11],Absolute mRNA transfection efficiency in HEK293 cells,6.2%
CCCCCCCCCCCCNc1nc(NCCN(C)C)nc(SCCCCCCCCCC)n1 [Compound D1S10N12],Absolute mRNA transfection efficiency in HEK293 cells,2.4%
CCCCCCCCCCCCCNc1nc(NCCN(C)C)nc(SCCCCCCCCCC)n1 [Compound D1S10N13],Absolute mRNA transfection efficiency in HEK293 cells,1.7%
